From patent US20090306454A1, “Devices and Methods for Stimulation of Tissue” (Stanford University, priority 2005, published 2009)

Assays:
[1] = test system: denervated orbicularis oculi; assay: Ach stimulation in the denervated rabbit model (Miochol-E injected into orbicularis oculi pocket); format: in vivo; set-up: key to eyelid response to Ach delivered: N = no response; C = complete eyelid closure
Excerpt: a) Two white New Zealand female rabbits were anesthetized by using 3-5% isofluorane inhalation and ketamine/xylazine and monitored by Heska monitor (SP02, heart rate, and rectal temperature). b) A pre-auricular incision was made the facial nerve was surgically sectioned and a five millimeter section was eliminated.
To determine the response of denervated orbicularis oculi in rabbits to stimulation with varying dosages of Miochol-E (acetylcholine chloride, injectable, Novartis pharmaceuticals) the FDA approved Miochol-E in 10 mg/ml, or 0.055M Ach (molar mass of 182 g/mol) was used to test the effects in the denervated rabbit model.
Methods: The rabbit was sedated in standard fashion, an eyelid incision was made 5 mm from the lash line and the Miochol E was injected into the orbicularis oculi pocket. Retesting was done at six weeks.

[2] = test system: right denervated orbicularis oculi; assay: Synergistic action of electric stimulation and Ach on denervated orbicularis oculi; format: in vivo, rabbit
Excerpt: A possible synergistic interaction between Ach and electric stimulation were observed as follows. After having injected an amount of Ach into the right denervated orbicularis oculi that produced no reaction, electric stimulation was delivered to the muscle at an intensity previously unable to produce a definitive blink.
In a subsequent test session, the right denervated orbicularis was first tested using electrical stimulation alone (prior to any Ach testing) as shown in Table III.
After the delivery of 200 ul of Ach to the right denervated orbicularis oculi, the right orbicularis oculi was allowed to relax to baseline position prior to Ach stimulation. No saline flush was performed. Electric stimulation was given at 10 msec phase duration at 3 volts.

[3] = Chemical stability of Ach at body temperature (37 C, HPLC with UV detection); format: physicochemical
Excerpt: To determine the stability of acetylcholine at 37 C to help guide the reservoir sizes and locations, aliquots of reference acetylcholine and standard strength Miochol-E (acetylcholine, injectable, Novartis Pharmaceuticals) were stored in sterile glass containers at 37 C.

[4] = Full Strength Ach (10 mg/ml), 200 μl, denervated rabbit orbicularis oculi

With CC(=O)OCC[N+](C)(C)C.[Cl-] [Ach, acetylcholine chloride] the “muscle contraction / eyelid closure (conclusion from experiments)” value ([1]; Ach delivered to the orbicularis in a diffuse fashion, at certain concentrations and volumes) was “tonic, prolonged closure”, the “eyelid response to Ach delivered” value ([1]; Ach dilution 1:1, 0.5 μl, denervated rabbit orbicularis oculi) was “N” and the “eyelid response to Ach delivered” value ([1]; Ach dilution 1:1, 1 μl, denervated rabbit orbicularis oculi) was “N”. The “eyelid response to Ach delivered” value ([1]; Ach dilution 1:1, 5 μl, denervated rabbit orbicularis oculi) was “N”, the “eyelid response to Ach delivered” value ([1]; Ach dilution 1:1, 10 μl, denervated rabbit orbicularis oculi) was “N” and the “eyelid response to Ach delivered” value ([1]; Ach dilution 1:1, 25 μl, denervated rabbit orbicularis oculi) was “N”. For the same compound, the “eyelid response to Ach delivered” value ([1]; Ach dilution 1:1, 50 μl, denervated rabbit orbicularis oculi) was “N”, the “eyelid response to Ach delivered” value ([1]; Ach dilution 1:1, 100 μl, denervated rabbit orbicularis oculi) was “N” and the “eyelid response to Ach delivered” value ([1]; Ach dilution 1:2, 0.5 μl, denervated rabbit orbicularis oculi) was “N”. For the same compound, the “eyelid response to Ach delivered” value ([1]; Ach dilution 1:2, 1 μl, denervated rabbit orbicularis oculi) was “N”, the “eyelid response to Ach delivered” value ([1]; Ach dilution 1:2, 5 μl, denervated rabbit orbicularis oculi) was “N” and the “eyelid response to Ach delivered” value ([1]; Ach dilution 1:2, 10 μl, denervated rabbit orbicularis oculi) was “N”. For the same compound, the “eyelid response to Ach delivered” value ([1]; Ach dilution 1:2, 25 μl, denervated rabbit orbicularis oculi) was “N”, the “eyelid response to Ach delivered” value ([1]; Ach dilution 1:2, 50 μl, denervated rabbit orbicularis oculi) was “N” and the “eyelid response to Ach delivered” value ([1]; Ach dilution 1:2, 100 μl, denervated rabbit orbicularis oculi) was “N”. The “eyelid response to Ach delivered” value ([1]; Ach dilution 1:5, 0.5 μl, denervated rabbit orbicularis oculi) was “N”, the “eyelid response to Ach delivered” value ([1]; Ach dilution 1:5, 1 μl, denervated rabbit orbicularis oculi) was “N” and the “eyelid response to Ach delivered” value ([1]; Ach dilution 1:5, 5 μl, denervated rabbit orbicularis oculi) was “N”. The “eyelid response to Ach delivered” value ([1]; Ach dilution 1:5, 10 μl, denervated rabbit orbicularis oculi) was “N”, the “eyelid response to Ach delivered” value ([1]; Ach dilution 1:5, 25 μl, denervated rabbit orbicularis oculi) was “N” and the “eyelid response to Ach delivered” value ([1]; Ach dilution 1:5, 50 μl, denervated rabbit orbicularis oculi) was “N”. For the same compound, the “eyelid response to Ach delivered” value ([1]; Ach dilution 1:5, 100 μl, denervated rabbit orbicularis oculi) was “N”, the “eyelid response to Ach delivered” value ([1]; Ach dilution 1:10, 0.5 μl, denervated rabbit orbicularis oculi) was “N” and the “eyelid response to Ach delivered” value ([1]; Ach dilution 1:10, 1 μl, denervated rabbit orbicularis oculi) was “N”. For the same compound, the “eyelid response to Ach delivered” value ([1]; Ach dilution 1:10, 5 μl, denervated rabbit orbicularis oculi) was “N”, the “eyelid response to Ach delivered” value ([1]; Ach dilution 1:10, 10 μl, denervated rabbit orbicularis oculi) was “N” and the “eyelid response to Ach delivered” value ([1]; Ach dilution 1:10, 25 μl, denervated rabbit orbicularis oculi) was “N”. The “eyelid response to Ach delivered” value ([1]; Ach dilution 1:10, 50 μl, denervated rabbit orbicularis oculi) was “N”, the “eyelid response to Ach delivered” value ([1]; Ach dilution 1:10, 100 μl, denervated rabbit orbicularis oculi) was “N” and the “eyelid response to Ach delivered” value ([1]; Full Strength Ach (10 mg/ml), 0.5 μl, denervated rabbit orbicularis oculi) was “N”. The “eyelid response to Ach delivered” value ([1]; Full Strength Ach (10 mg/ml), 1 μl, denervated rabbit orbicularis oculi) was “N”, the “eyelid response to Ach delivered” value ([1]; Full Strength Ach (10 mg/ml), 5 μl, denervated rabbit orbicularis oculi) was “N” and the “eyelid response to Ach delivered” value ([1]; Full Strength Ach (10 mg/ml), 10 μl, denervated rabbit orbicularis oculi) was “N”. The “eyelid response to Ach delivered” value ([1]; Full Strength Ach (10 mg/ml), 25 μl, denervated rabbit orbicularis oculi) was “N”, the “eyelid response to Ach delivered” value ([1]; Full Strength Ach (10 mg/ml), 50 μl, denervated rabbit orbicularis oculi) was “N” and the “eyelid response to Ach delivered” value ([1]; Full Strength Ach (10 mg/ml), 100 μl, denervated rabbit orbicularis oculi) was “N”. The “duration of complete eyelid closure” value [1, 4] was 1 min, the “eyelid response to Ach delivered” value [1, 4] was “C” and the “eyelid response to electric stimulation after Ach delivery” value ([2]; after 200 ul of Ach, muscle relaxed to baseline, no saline flush, electric stimulation 10 msec phase duration at 3 volts) was “Reproducible complete closure blinks”. For the same compound, the “eyelid reaction to injected Ach alone” value ([2]; an amount of Ach injected into the right denervated orbicularis oculi, before electric stimulation) was “no reaction”, the “eyelid response to electric stimulation after Ach injection” value ([2]; electric stimulation at an intensity previously unable to produce a definitive blink, after Ach amount that produced no reaction, over three stimulated partial blink motions) was “closed tightly for four minutes” and the “stability at body temperature” value ([3]; 14 days in sterile glass at 37 C) was “stable”. The “Peak Area (Ach concentration by HPLC-UV)” value ([3]; after storage at 37 C for 14 days in sterile glass) was 56494.
